The values that follow come from patent publication US20240182873A1, “PRENYLTRANSFERASE AND A […], TISSUE, AND ORGANISM COMPRISING SAME” (YEDA RESEARCH AND DEVELOPMENT CO. LTD., priority 2021, published 2024).

The subject of experiment [1] is Helichrysum umbraculigerum HuPT3 (SEQ ID NO: 3), N-terminal plastid targeting sequence removed. The experiment in a line: Steady state kinetic analysis of HuPT3 with olivetolic acid and GPP (yeast microsomes, CBGA production). As to conditions: varying olivetolic acid (0.5 μM-1.5 mM), constant GPP (1 mM), pH 8.5, 30° C., 15 min, n=3. In kind it is biochemical. On the procedure:
(§1) FIG. 4 includes graphs showing steady state kinetic analysis of Helichrysum umbraculigerum PT1 (HuPT1; SEQ ID NO: 1), HuPT3 (SEQ ID NO: 3) and HuPTx (SEQ ID NO: 7) with olivetolic acid and GPP. The Michaelis-Menten Km value of each enzyme was calculated using varying olivetolic acid (0.5 μM-1.5 mM) and constant GPP (1 mM) concentrations (n=3 technically independent samples; measurements were plotted individually).
(§2) HuPT1 (SEQ ID NO: 1), HuPT2 (SEQ ID NO: 2), HuPT3 (SEQ ID NO: 3), HuPTx (SEQ ID NO: 7) genes from H. umbraculigerum and GOT4 gene from Cannabis sativa were separately cloned into pESC-HIS vector. Microsomal preparations from yeast cells transformed with pESC-HIS vectors were performed as described by Jozwiak et al. (2020). PT enzymatic assay was carried out as described previously for CsGOT4 (Luo et al., 2019).
(§3) Microsomes (2 μl) were dissolved in reaction buffer (50 mM Tris-HCl, 10 mM MgCl2, pH 8.5) and substrate was added [0.5 μM-1.5 mM μM olivetolic acid (Cayman Chemicals), 1 mM geranyl pyrophosphate (GPP, Sigma Aldrich)] to a total volume of 50 μl. Samples were incubated for 15 min at 30° C. Samples were extracted with 100 μl […] followed by vortexing and centrifugation. The organic layer was filtered and analyzed via UPLC-qTOF and Triple Quad (TQ) instruments. […]

For experiment [2], the system named is Helichrysum umbraculigerum HuPTx (SEQ ID NO: 7), N-terminal plastid targeting sequence removed. The experiment in a line: Steady state kinetic analysis of HuPTx with olivetolic acid and GPP (yeast microsomes, CBGA production). In kind it is biochemical. As to conditions: varying olivetolic acid (0.5 μM-1.5 mM), constant GPP (1 mM), pH 8.5, 30° C., 15 min, n=3. The method, then: as §1, §2, §3

The subject of experiment [3] is Cannabis sativa geranylpyrophosphate:olivetolate geranyltransferase 4 (CsGOT4). The following applies: Luo et al., 2019; cited from earlier work.
Experiment [4] concerns Helichrysum umbraculigerum PT1 (HuPT1; SEQ ID NO: 1), N-terminal plastid targeting sequence removed. Put plainly: Steady state kinetic analysis of HuPT1 with olivetolic acid and GPP (yeast microsomes, CBGA production). In kind it is biochemical. As to conditions: varying olivetolic acid (0.5 μM-1.5 mM), constant GPP (1 mM), pH 8.5, 30° C., 15 min, n=3. The method, then:
as §1, §2, §3

Experiment [5] is described as follows: In vitro enzymatic assay with PTs: CBGA production by yeast microsomal fractions. The experiment is classed as biochemical. The following applies: purified yeast microsomal fraction expressing the PT; OA and GPP as substrates; LC-MS.
Excerpt: FIG. 2 includes a graph showing in vitro production of cannabigerolic acid (CBGA). Purified microsomal fraction from yeast cells expressing prenyltransferases (PTs) were used in enzyme assay containing olivetolic acid (OA) and geranylpyrophosphate (GPP). Cannabis sativa geranylpyrophosphate:olivetolate geranyltransferase 4 (CsGOT4) enzyme assay was used as positive control in experiment. Extracted ion chromatograms (EICs) are shown. LC-MS was used for assay products analysis. Standard—STD; Negative control—Empty vector.
as §2
The inventors profiled six tissues (young leaf, old leaf, florets and receptacles of flowers, stems, and roots) from H. umbraculigerum, using UPLC-qTOF, and identified CBGA in all the tissues, excluding roots (FIG. 1). CBGA is the known central precursor to Δ^9-tetrahydrocannabinolic acid (THCA), cannabidiolic acid (CBDA) and several other cannabinoids. It is produced from olivetolic acid (OA) and geranyl pyrophosphate (GPP) by an enzymatic reaction catalyzed by geranylpyrophosphate:olivetolate geranyltransferase 4 (GOT4). To identify genes in H. umbraculigerum associated with GOT4 like activity, the inventors searched for candidate prenyltransferase genes in Helichrysum transcriptome. Four prenyltransferase like genes, namely, HuPT1 (SEQ ID NO: 1), HuPT2 (SEQ ID NO: 2), HuPT3 (SEQ ID NO: 3) and HuPTx (SEQ ID NO: 7) were selected for further characterization based on their differential expression profile in leaves compared to other tissues. All these PTs shared less than 40% homology with CsGOT4 that is known to partake in cannabinoid biosynthesis. […]

Usually Km stands for the concentration of substrate that gives half-maximal velocity. Take `CCCCCc1cc(O)cc(O)c1C(=O)O` [olivetolic acid]: the Km is 110 ± 44.3 µM in experiment [1], 2 ± 0.8 µM in experiment [2], 6.7 ± 0.3 µM in experiment [3] and 19 ± 6.3 µM in experiment [4].

B1: HuPT1: Prenyltransferase from Helichrysum umbraculigerum, gene SEQ ID NO: 1, expressed in yeast microsomes (protein)
chain: MELSLSSSSSSSLPQLHTHPSSSSSSSHYIKKSPFFINKFNNHTKCKFHNSSALRTNFFYTTITKTSSSRFVLNKNPNQFSVKACSQVGSAGSDPALNKVADFKDAFWRFLRPHTIRGTALGSVSLVTRALLENPNLIRWSLLLKAFSGLVALICGNGYIVGINQIYDIGIDKVNKPYLPIAAGDLSVQSAWFLVLAFAMVGVIIVGMNFGPFITSLYSLGLFLGTIYSVPPLRMKRFPVVAFLIIATVRGFLLNFGVYYAVRAALGLTFQWSSAVAFITTFVTLFALVIAITKDLPDVEGDRKFQISTFATKLGVRNIALLGSGLLLINYIGSIVAALYMPQAFRSSLMIPLHTILASCLIYQAWILERANYTQEAIAGYYRFVWNLFYSEYIIFPFI
Turning to B1, the “production of CBGA (PT activity)” value in experiment [5] was “clear production of CBGA”.

B2: HuPT3: Prenyltransferase from Helichrysum umbraculigerum, gene SEQ ID NO: 3, expressed in yeast microsomes (protein)
chain: MKSLIIGSFSNKVSCYSPSLPDSSSSLIPTGCYHVSLRTFQRNRAIQAQSSLVRCNIGKFNETLLLSRKRSTKHVACAVSEQPIEPDATNPQSSLPNALDAFYRFSRPHTVIGTALSIVSVSLLAVQKLSDFSPLFFIGVFEAIVAAFFMNIYIVGLNQLSDIEIDKVNKPYLPLASGEYSVQTGIIIVSSFAVMSFWLGWIVGSWPLFWALFISFLLGTAYSINIPMLRWKRFALVAAMCILAVRAIIVQVAFYLHIQTFVYGRLAVFPKPVIFATGFMSFFSVVIALFKDIPDIVGDKIFGIQSFTVRMGQKRVFWICILLLEIAYGVAILVGASSPFLWSRYITVLGHAILGLILWGRAKSTDLESKSAITSFYMFIWQLFYAEYLLIPLVR
Regarding B2, the “production of CBGA (PT activity)” value in experiment [5] was “clear production of CBGA”.

B3: HuPTx: Prenyltransferase from Helichrysum umbraculigerum, gene SEQ ID NO: 7, expressed in yeast microsomes (protein)
chain: MASLAIGSLGSPSSRQCSSPVASSSSFAIGSQIASKFLRISKFDKTKNSPLTLQQKHINKSIDQSFFEPLPLHKINKDKFKLYATSTNNPQFDATHDLKTPEVSIINFVDALYRLIRPYTAVVTIVSVVAMSLLTVNSLSDFSPLFFIKVVQALIGGIFMQMYVSGFNQICDIELDKVNKQSLPLAAGELSMKTAIVIASLSAIMSLSIGWFVGSPPLLWCLVWWFIVGTAYSANVLPYLRWKRFPFTAAFCAMTSRALVLPIGYYLHMQNSIPGVSALLSRPILFAVAMLSAFSLSAMFFKDIPDIKGDRMHGIKSLAIKLGEKRVYWISISIIEIAYIAAAFIGATSPISWSKYVTIIGHLGMGLLLWVRARSVDPTNTVAVQSMYMFLIKLVYAEYGLISLVR
On to B3, for which, in experiment [5], the “production of CBGA (PT activity)” value is “clear production of CBGA”.
